The values that follow come from US20090137616A1, “METHOD FOR THE CONTROL OF PHYTOPATHOGENIC FUNGI” (Syngenta Crop Protection, Inc., priority 2004, published 2009).

The subject of one experiment is P. ultimum. The experiment in a line: Greenhouse seed treatment efficacy, Pioneer hybrid 34M95 seeds in Pythium-infested soil. The class given is in vivo. The following applies: vs uninoculated seeds. The source says: Seeds of the Pioneer hybrid 34M95 were untreated and treated with mefenoxam, azoxystrobin or trifloxystrobin at the rates described in Table 3. To test the efficacy of the seed treatment fungicides pasteurized soil was infested with each isolate of Pythium at a rate of 7.8% (volume of inoculum/volume of soil). All these studies were done under greenhouse conditions, and data presented as a comparison against uninoculated seeds.

Another experiment deals with Pythium. As to the kind of experiment: Sensitivity of Pythium isolates to phenylamide and strobilurin fungicides (summary). The following applies: isolates from several species of Pythium that are insensitive to mefenoxam. The class given is cell-based. As to the method: Plant and soil samples were collected from fields where plant stand establishment issues appeared to be increasing when using standard mefenoxam or metalaxyl seed treatment fungicide programs. Fungal pathogens were isolated from the plant and soil material. Pythium species were identified and studies were conducted to determine the sensitivity of these fungal pathogens to phenylamide and strobilurin fungicides. It can be seen that isolates from several species of Pythium that are insensitive to mefenoxam are sensitive to azoxystrobin or trifloxystrobin.

[1] abbreviates: P. ultimum 03-047, seed treatment 1 g a.i/100 KgSeeds.
Setting [2] is: P. ultimum 03-795, seed treatment 1 g a.i/100 KgSeeds.
The mark [3] stands for this setting: P. ultimum 03-047, seed treatment 2 g a.i/100 KgSeeds.
The mark [4] stands for this setting: P. ultimum 03-795, seed treatment 2 g a.i/100 KgSeeds.
The mark [5] stands for this setting: P. ultimum 03-047, seed treatment 5 g a.i/100 KgSeeds.
[6] abbreviates: P. ultimum 03-795, seed treatment 5 g a.i/100 KgSeeds.

As to `CO/C=C(/C(=O)OC)c1ccccc1Oc1cc(Oc2ccccc2C#N)ncn1` [Azoxystrobin, azoxystrobin], the “% fresh weight reduction” value is 7.9% with P. ultimum (setting [1]) and 24.7% in the experiment with P. ultimum (setting [2]). In addition, the “% stand reduction” value in the experiment on P. ultimum (setting [1]) is 0.0%; in the experiment with P. ultimum (setting [2]), 6.7%. Moreover, in the experiment on Pythium, the “sensitivity of mefenoxam-insensitive Pythium isolates” value is “sensitive”.
For `COCC(=O)N(c1c(C)cccc1C)[C@H](C)C(=O)OC` [Mefenoxam, mefenoxam], in the experiment on P. ultimum (setting [3]), the “% fresh weight reduction” value was 5.2% and the “% stand reduction” value was 6.7%. In the experiment with P. ultimum (setting [4]), the “% fresh weight reduction” value came to 15.3% and the “% stand reduction” value is on record as 6.7%.
Take `CON=C(C(=O)OC)c1ccccc1CON=C(C)c1cccc(C(F)(F)F)c1` [Trifloxystrobin, trifloxystrobin]: in the experiment with P. ultimum (setting [5]), the “% fresh weight reduction” value is 0.0% and the “% stand reduction” value is 0.0%. Besides, in the experiment with P. ultimum (setting [6]), the “% fresh weight reduction” value is recorded as 24.1% and the “% stand reduction” value was 6.7%. For the same molecule, the “sensitivity of mefenoxam-insensitive Pythium isolates” value in the experiment with Pythium is given as “sensitive”.
